Data from patent US12297179B2, “Crystalline and salt forms of an organic compound and pharmaceutical compositions thereof” (Servier Pharmaceuticals LLC, priority 2018, dated 2025).
Structures can show the parent of a compound that is named as a salt. Marks after values point to notes of the source that are not given here. Blank lines part the entries; values can stand above or below the compound they belong to.

Tests used:
[1] = Kinetic solubility in bio-relevant media (SGF/FaSSGF, FaSSIF, FeSSIF) and H2O at 37° C., with pH of supernatant; format: physicochemical; details: for solubility at 15 min / solubility at 30 min / solubility at 1 h / solubility at 2 h / solubility at 24 h: 37 °C, thermodynamic from solid; for Solubility: 37° C.
Protocol: (§1) Weigh 100 mg of sodium chloride into a 50-mL volumetric flask. Add appropriate volume of purified water and sonicate until all solids are completely dissolved. Add sufficient purified water closely to the target volume and adjust to pH 1.6. Weigh 3 mg of FaSSIF/FeSSIF/FaSSGF powder into the volumetric flask and sonicate until the powder is completely dissolved. Dilute to target volume with purified water and mix well.
as §1, with “0.170 g of monobasic sodium phosphate, 0.021 g of sodium hydroxide and 0.31 g” for “100 mg”, “6.5.” for “1.6.”, “110” for “3”
as §1, with “0.41 mL of glacial acetic acid, 0.202 g of sodium hydroxide and 0.594 g” for “100 mg”, “5.0.” for “1.6.”, “560” for “3”
An Agilent 1260 HPLC with DAD detector was utilized and detailed chromatographic conditions for solubility analysis are listed in Table 5.
Kinetic solubility of Tris salt Form A and free acid Form D were measured in three bio-relevant media (SGF, FaSSIF and FeSSIF) at 37° C. In details, ˜30 mg solids were suspended into 4.0 mL of each medium initially and equilibrated via shaking (500 rpm) at 37° C. Approximately 0.8 mL suspension was extracted at each time point of 15/30/60/120 mins and 24 hrs. The supernatant and precipitate were separated by centrifugation (10000 rpm, ˜3 mins) followed by concentration (HPLC) and pH measurement for supernatant and the corresponding solid forms were characterized by XRPD.
Due to the thermodynamic stability of Tris salt Form C, further evaluation was conducted, including kinetic solubility in three bio-relevant media (FaSSGF/FaSSF/FeSSIF) and H2O at 37° C.

[2] = Hygroscopicity by dynamic vapor sorption (DVS); format: physicochemical
Protocol: DVS was measured via a SMS (Surface Measurement Systems) DVS Intrinsic. The relative humidity at 25° C. was calibrated against deliquescence point of LiCl, Mg(NO3)2 and KCl.

[3] = Thermodynamic stability: slurry competition between Tris salt Forms A and C; format: physicochemical; details: DMSO/EtOH (1:8, v/v) and EtOH, 5° C./RT/50° C./75° C., 7 days
Protocol: The thermodynamic stability relationship between Tris salt Forms A and C was investigated via slurry competition experiments in 2 process related solvent systems, DMSO/EtOH (1:8, v/v) and EtOH at 4 temperature conditions (5° C./RT/50° C./75° C.). Two stages of slurry competition experiments were conducted, of which the first stage included temperature as a variable and the second stage used newly opened reagents to minimize the effect of absorbed moisture. Typical experimental procedures are described below.
About 5-10 mg of crystalline Tris salt Form C was first dissolved in ˜1.0 mL of corresponding solvent to form nearly saturated solution under corresponding temperature (equilibrating method: stirring magnetically, ˜1000 rpm, ˜2 hrs). Then ˜15 mg of each form (crystalline Tris salt Forms A and C) was physically mixed, followed by addition of the nearly saturated solution to form a suspension. The suspensions were then stirred (˜1000 rpm) under corresponding temperature for 7 days (a small amount of solids were sampled at 2 day point in the second stage experiments). The obtained solids were isolated via centrifugation (10000 rpm, 2 mins) and tested by XRPD to confirm the form.

[4] = Sprague Dawley, rat, in vivo, po, 100 mg/kg
Protocol: The objective of the pharmacokinetic (PK) studies was to determine the pharmacokinetics of the different forms of Compound 1 in intact Sprague Dawley rats after oral (PO) administration. […] Food and water were available to all animals ad libitum and Compound 1 or Tris salt Form C of Compound was dosed orally at 100 mg/kg (100 mL/kg). Approximately 110 μL of whole blood was collected via tail vein bleeding predose and at 0.083, 0.25, 0.5, 1, 2, 4, 8, 12 and 24 hours postdose into tubes containing the anticoagulant K2EDTA, processed to obtain plasma, and stored at approximately −70° C. until analysis. Concentrations of the active pharmaceutical ingredient in plasma samples were quantified using a nonvalidated liquid chromatography with tandem mass spectrometry (LC-MS/MS) method. Pharmacokinetic analysis of the individual plasma concentration data was performed using WinNonlin© (Version 6.4; Pharsight Corporation, Mountain View, CA, USA). Pharmacokinetic parameters were estimated using a noncompartmental extravascular models method. Area under the concentration-time curve (AUC) was calculated using the linear trapezoidal rule. […] Concentrations that were <80% of the LLOQ were designated as BLQ.

solubility at 15 min ([1]; FaSSIF, pH 6.5, fassif, Table 12, FaSSIF, 15 min): 390 µg/mL | solubility at 30 min ([1]; FaSSIF, pH 6.5, fassif, Table 12, FaSSIF, 30 min): 320 µg/mL | solubility at 1 h ([1]; FaSSIF, pH 6.5, fassif, Table 12, FaSSIF, 1 h): 250 µg/mL | solubility at 2 h ([1]; FaSSIF, pH 6.5, fassif, Table 12, FaSSIF, 2 h): 220 µg/mL | solubility at 24 h ([1]; FaSSIF, pH 6.5, fassif, Table 12, FaSSIF, 24 h): 170 µg/mL | solubility at 15 min ([1]; FeSSIF, pH 5, fessif, Table 12, FeSSIF, 15 min): 330 µg/mL | solubility at 30 min ([1]; FeSSIF, pH 5, fessif, Table 12, FeSSIF, 30 min): 270 µg/mL | solubility at 1 h ([1]; FeSSIF, pH 5, fessif, Table 12, FeSSIF, 1 h): 50 µg/mL | solubility at 2 h ([1]; FeSSIF, pH 5, fessif, Table 12, FeSSIF, 2 h): 40 µg/mL | solubility at 24 h ([1]; FeSSIF, pH 5, fessif, Table 12, FeSSIF, 24 h): 40 µg/mL | Solubility ([1]; Table 12, FaSSGF, 15 min): <LOD | Solubility ([1]; Table 12, FaSSGF, 30 min): <LOD | Solubility ([1]; Table 12, FaSSGF, 1 h): <LOD | Solubility ([1]; Table 12, FaSSGF, 2 h): <LOD | Solubility ([1]; Table 12, FaSSGF, 24 h): <LOD | pH ([1]; Table 12, FaSSGF, 15 min): 3.0 | pH ([1]; Table 12, FaSSGF, 30 min): 3.1 | pH ([1]; Table 12, FaSSGF, 1 h): 4.0 | pH ([1]; Table 12, FaSSGF, 2 h): 4.1 | pH ([1]; Table 12, FaSSGF, 24 h): 3.1 | pH ([1]; Table 12, FaSSIF, 15 min): 7.7 | pH ([1]; Table 12, FaSSIF, 30 min): 7.8 | pH ([1]; Table 12, FaSSIF, 1 h): 7.8 | pH ([1]; Table 12, FaSSIF, 2 h): 7.8 | pH ([1]; Table 12, FaSSIF, 24 h): 7.9 | pH ([1]; Table 12, FeSSIF, 15 min): 5.5* | pH ([1]; Table 12, FeSSIF, 30 min): 5.6* | pH ([1]; Table 12, FeSSIF, 1 h): 5.6 | pH ([1]; Table 12, FeSSIF, 2 h): 5.6 | pH ([1]; Table 12, FeSSIF, 24 h): 5.6 | pH ([1]; Table 12, H2O, 15 min): 8.9 | pH ([1]; Table 12, H2O, 30 min): 9.0 | pH ([1]; Table 12, H2O, 1 h): 9.0 | pH ([1]; Table 12, H2O, 2 h): 9.0 | pH ([1]; Table 12, H2O, 24 h): 9.2 | solubility at 15 min ([1]; water, Table 12, H2O, 15 min): 810 µg/mL | solubility at 30 min ([1]; water, Table 12, H2O, 30 min): 820 µg/mL | solubility at 1 h ([1]; water, Table 12, H2O, 1 h): 720 µg/mL | solubility at 2 h ([1]; water, Table 12, H2O, 2 h): 750 µg/mL | solubility at 24 h ([1]; water, Table 12, H2O, 24 h): 400 µg/mL | solid form after the DVS test (XRPD) ([2]; 25° C.): remained as Tris salt Form C | moisture uptake ([2]; DVS, humidity varied from 0% RH to 80% RH at 25° C.): ~0.04 wt % | form after slurry competition (XRPD), thermodynamic stability [3]: thermodynamically more stable
SMILES: Cc1ccccc1-c1ccc(-c2cc(C(=O)O)c3c(c2)nnn3C)cc1 [Tris salt Form C]

Cmax, fold higher than best free acid batch Lot B [4]: ~1.5 fold | Tmax, fold lower than best free acid batch Lot B [4]: ~2 fold
SMILES: Cc1ccccc1-c1ccc(-c2cc(C(=O)O)c3c(c2)nnn3C)cc1 [Tris salt, 1-methyl-5-(2′-methyl-[1,1′-biphenyl]-yl)-1H-benzo[d][1,2,3]triazole-7-carboxylate Tris salt]
